Numbering of substitutions follows the chain as printed.
Key:
[1] = biological target: T1, human α1R271L-GlyR expressed in HEK 293 cells (Homo sapiens, UniProt P23415, R299L); test: Whole-cell patch-clamp, positive allosteric modulation of glycine (EC20) induced currents; assay type: cell-based; design: expressed in transfected cells; host or cells: HEK 293 (transient, electroporation; pcDNA1amp vector); conditions: R271L
T1 sequence (P23415 29-457 R299L): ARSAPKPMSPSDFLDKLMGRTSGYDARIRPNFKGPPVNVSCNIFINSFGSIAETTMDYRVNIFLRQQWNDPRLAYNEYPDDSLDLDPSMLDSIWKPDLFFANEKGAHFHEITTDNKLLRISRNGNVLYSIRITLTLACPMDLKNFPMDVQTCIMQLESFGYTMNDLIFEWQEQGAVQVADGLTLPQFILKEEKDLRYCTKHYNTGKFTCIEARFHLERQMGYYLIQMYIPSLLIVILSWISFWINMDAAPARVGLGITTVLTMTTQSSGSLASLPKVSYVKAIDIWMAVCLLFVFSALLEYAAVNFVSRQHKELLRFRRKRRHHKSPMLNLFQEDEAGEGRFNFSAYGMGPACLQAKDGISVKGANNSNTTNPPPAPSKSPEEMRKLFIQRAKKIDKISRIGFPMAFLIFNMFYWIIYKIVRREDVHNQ
Description: Drug-containing vials were vigorously vortexed for 30min.
A new cell was used for each protocol and at least four different experiments were performed for each condition. The concentration of the diluent EtOH corresponding to the highest drug concentration used was 17150 μM.
Currents were filtered at 2 kHz.
Currents were normalized to their own maximum response.

[2] = biological target: T2, human α1R271Q-GlyR expressed in HEK 293 cells (Homo sapiens, UniProt P23415, R299Q); conditions: R271Q
T2 sequence (P23415 29-457 R299Q): T1 sequence (P23415 29-457 R299L) with L271Q
Description: Human α1-, α1R271Q-, α1R271L-, α1R271K and α1S267I-GlyR subunits were transiently transfected into human embryonic kidney cells (HEK 293, ATCC, Manassas, USA). The wild type α1-GlyR -cDNA was cloned in pCIS2 (Invitrogen, San Diego, USA) vector and provided by Prof. Heinrich Betz (Max-Planck-Institut für Hirnforschung, Frankfurt am Main, Germany). For the plasmid cDNA of the mutated α1R271Q-, α1R271L-, α1R271K- and α1S267I-GlyR the eukaryotic expression vector pcDNA1amp (Invitrogen, San Diego, USA), under the control of cytomegalovirus promoter, was used. For site-directed mutagenesis, single stranded template cDNA was synthesized from M13 origin of replication and the mutations of arginine residue (R) at position 271 to glutamine (R271Q), leucine (R271L) or lysine (R271K) and mutation of serine residue (S) at position 267 to isoleucine (S267I) were generated using standard procedures. […] Wild type and mutated α1-GlyR subunits efficiently form homomeric receptors in heterologous expression systems.
HEK 293 cells were cultured in medium containing HAMS’F-12 (Biochrom, Berlin, Germany), supplemented with 10% fetal bovine serum (FBS, Biochrom, Berlin, Germany), 100 U ml^–1 penicillin and 100μgml^–1 streptomycin (Gibco BRL, Life Technologies, Karlsruhe, Germany) at 37°C in a 5% CO2/ 95% air incubator. For transfection cells were suspended in a buffer containing 50mM K2HPO4 (Fluka BioChemika, Seelze, Germany), 20mMK-acetate (Sigma-Aldrich, Taufkirchen, Germany) and 25mM MgSO4 (Sigma-Aldrich, Taufkirchen, Germany) at pH 7.35. To visualize transfected cells, they were co-transfected with cDNA encoding for enhanced green fluorescent protein (EGFP) contained in the pEGFP-N1 expression vector (Clontech, Palo Alto, USA). The corresponding cDNA (5μg for the GlyR and 2.5μg for EGFP) was added to 400μl of the cell suspension and the mixture was rapidly transferred into the electroporation cuvette. For transfection we used an electroporation device by EquiBio (Kent, UK) and a 4mm aluminum electrode electroporation cuvette (Peqlab, Erlangen, Germany).
The phenol derivative 4-chloropropofol ([…]) was provided as pure substance by Prof. Paul M. O’Neill (University of Liverpool, England), prepared as light-protected 1M stock solution in ethanol (EtOH, J.T.Baker, Griesheim, Germany) and stored in glass vessels at −20°C.
Drug-containing vials were vigorously vortexed for 30min. Patch electrodes were filled with an intracellular solution of [mM] KCl 140, MgCl2 2, EGTA 11, HEPES 10, glucose 11, CaCl2 1 with pH 7.3, adjusted with 1 M KOH and a bath solution contained [mM] NaCl 162, KCl 5.31, NaHPO4 0.85, KH2PO4 0.22, HEPES 15, glucose 6.11, pH 7.4 adjusted with 1 M NaOH. Osmolarity of both solutions was set at 280–300 mOsmol.
Whole-cell experiments were performed at a holding potential of −30 mV with a mean seal resistance of 1 GΩ. […] A fast liquid filament switch technique was used for the application of the agonist, presented in pulses of 2 s duration every 20 s. The liquid filament switch technique is able to exchange the solution passing an outside-out patch or small whole-cells within 1–2 ms. We calculated flow rate of background solution through the chamber with 3,4 ml/min corresponding to 4% of maximal pump rate. With regard to the chamber volume of 100 μl the exchange solution time within the chamber was assessed to approximately […], dependent on cell size accordingly. Piezo-switch and small diameter capillary (ID 0.15 mm) within the measurement chamber promoted the millisecond solution exchange. […] The induced current (I) by this saturating control solution was defined as Icontrol. […] The stability of the seal was controlled during the complete experiment via control of the seal resistance. A variation of 10-20% of the basic value was regarded as tolerable.

Row | Compound | positive allosteric modulation nH ± SEM ([1]; EC20 glycine 30 mM) | EC50 ([1]; co-applied with sub-saturating (EC20) glycine 30 mM, read-out: positive allosteric modulation EC50 ± SEM) [nM] | positive allosteric modulation, potentiation [% of peak current amplitude] ± SEM ([1]; maximal positive allosteric modulation, EC20 glycine 30 mM) [%] | Current amplitude [% of mean WT current amplitude] ± SEM [2] [%] | nH ± SEM (Hill coefficient), glycine activation [2] | current peaks ([2]; 1 mM glycine) | activation by low glycine concentrations ([2]; 10-100 μM glycine) | Rise time ± SEM ([2]; 10-90% of Imax, monoexponential fit) [ms]
1 | 4-chloro-2,6-dimethylphenol [4-chloropropofol] | 0.7 ± 0.3 | 100 ± 200 | 153 ± 46 |  |  |  |  | 
2 | NCC(=O)O [glycine] |  |  |  | 7.5±15 | 1.0±0.6 | less than 50 pA | lacks activation | 673 ± 224
